We go through 82 molecules from the METLIN SMRT retention time set (Domingo-Almenara et al. 2019).

The data set in a line: gradient 5% acetonitrile 3 min, to 50% in 2 min, to 85% in 15 min, held 3 min, 100 µL/min. As to conditions: column: Zorbax Extend-C18 2.1 x 50 mm; eluents: water / acetonitrile, 0.1% formic acid. The essentials:
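A Zorbax Extend-C18 column (2.1 × 50 mm, 1.8 μm) run at 100 μL/min with water and acetonitrile, both containing 0.1% formic acid, separated mixtures of ~100 pure standards. The HPLC was coupled to a quadrupole time-of-flight mass spectrometer operated in positive and negative ionization mode, with dead and dwell volumes of 40 μL and 900 μL. Each retention time was taken from a computationally picked adduct peak that was then manually inspected.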
On to `O=C(NCCc1ccc(Cl)cc1)C(=O)Nc1ccon1`, for which the RP-LC retention time is 772 s.

The molecule `CSc1ccc(-c2nc3ccccn3c2Nc2ccccc2C)cc1` had an RP-LC retention time of 794 s. For `Cc1ncc2c(n1)C[C@@H]1CC[C@H]2N1C(=O)c1ccccn1`, the RP-LC retention time was 603 s. As to `CC1CS(=O)(=O)N(c2ccc(C(=O)NCCc3c[nH]c4ccccc34)cc2)C1=O` (configuration not stated), the RP-LC retention time worked out at 780 s. `CC1CCN(c2cc(-n3cnc(C(=O)N4CCSCC4)c3)ncn2)CC1` yielded an RP-LC retention time of 719 s. `CCN(CC)CCNC(=O)CN1CC(C)Sc2ccccc21` (configuration not stated) had an RP-LC retention time of 656 s. As to `O=c1ccc(-n2ccnc2)nn1CCNS(=O)(=O)Cc1cc(F)ccc1F`, the RP-LC retention time stood at 555 s. Molecule `O=C(Cn1cnc2ccccc2c1=O)NC1CC1` showed an RP-LC retention time of 596 s.

Consider `Cc1cccc(C(=O)NC(C)C(=O)Nc2nc3ccccc3[nH]2)c1` (configuration not stated), for which the RP-LC retention time worked out at 648 s.

The molecule `CCCN(C(=O)Cc1c(C(=O)O)c(C)cn1CC)c1cccc(Cl)c1` came in with an RP-LC retention time of 767 s. The result for `OCCNCc1ccc(-c2ccccc2F)o1` reads 596 s; that for `CC(C(=O)NCCN(C)C)C1CCN(C(=O)c2cc3cc(Cl)ccc3[nH]2)CC1` (configuration not stated), 649 s. In turn, `CCc1ccccc1NC(=O)N1C[C@H](c2nc(-c3ccccc3)no2)[C@@H](C)C1` came in with an RP-LC retention time of 1040 s. As for `Cc1cc2nc(C(=O)Nc3ccc(F)c(F)c3)cc(C)n2n1`, the RP-LC retention time was determined as 986 s.

Consider `COc1ccc(Cl)cc1NC(=O)c1cn2c(n1)CCCC2`, for which the RP-LC retention time came out at 726 s. Turning to `CCCCN(C)CCCNC(=O)C1CCN(S(=O)(=O)CCC)CC1`, the RP-LC retention time was 968 s. `Cc1ccccc1NS(=O)(=O)c1cc(-c2[nH]ncc2C(=O)N2CCOCC2)oc1C` had an RP-LC retention time of 678 s. Consider `O=C(Nc1cccc(-c2ccc(N3CCOCC3)nn2)c1)Nc1ccccc1F`, for which the RP-LC retention time was 688 s. The result for `CCOC(=O)CNC(=O)N1CCN(c2ccc(=O)n(-c3ccc(C)cc3)n2)CC1` reads 683 s; that for `CCCN(CCC)C(=O)Cn1c(CO)nc2ccccc21`, 623 s; that for `Cc1ccc(-c2nc3sc(N4CCCCC4)nn3c2NC(=O)C2CCCO2)cc1` (configuration not stated), 901 s.

As for `CCCCn1c(=O)c2ccccc2n(Cc2nc(-c3ccc(SC)cc3)no2)c1=O`, the RP-LC retention time came to 1250 s.

For `CCn1cc(CCNC(=O)Nc2ccc(Cl)cc2F)c2cccnc21`, the RP-LC retention time worked out at 824 s. For `Cc1noc(C)c1C(=O)N1CC(c2nc(CCOC3CCCC3)no2)C1`, the RP-LC retention time stood at 788 s. With `Cc1nn(C)cc1S(=O)(=O)NCCc1c[nH]c2ccccc12`, the RP-LC retention time came to 683 s.

Turning to `COc1ccc(Nc2c(-c3ccc(Cl)cc3)nc3cnccn23)cc1OC`, the RP-LC retention time was 828 s.

`COc1cccc(-c2csc(Cc3nc(-c4cccc(Cl)c4)no3)n2)c1` gave an RP-LC retention time of 1280 s. `COc1ccc(-n2nc(SCC(=O)Nc3cc(F)ccc3F)ccc2=O)cc1` showed an RP-LC retention time of 756 s. Turning to `Cc1nc(-c2cn(C)c3ncccc23)sc1C(=O)NCc1ccc(C(F)(F)F)cc1`, the RP-LC retention time came out at 981 s.

The molecule `Cc1nc(-c2cc(S(=O)(=O)N3CCC(C(=O)N4CCCCCC4)CC3)c(C)s2)no1` returned an RP-LC retention time of 919 s. For the molecule `CC(C)C(=O)N1CCC(Cc2noc(C3CC3)n2)C1` (configuration not stated), the RP-LC retention time stood at 692 s. Molecule `CCOC(=O)c1c(S(=O)(=O)N2CCC(C(=O)Nc3nc(C)cs3)CC2)c(C)n(C)c1C` returned an RP-LC retention time of 780 s. Molecule `O=c1c2ccccc2ccc2ccccc12` gave an RP-LC retention time of 1120 s. As for `COc1cccc(C2CC(c3cccs3)=NN2C(=O)C(OC)c2ccccc2)c1O` (configuration not stated), the RP-LC retention time was determined as 937 s. Take `COc1ccc(CNC(=O)c2cn(C)nc2S(=O)(=O)N2CCSCC2)cc1`: the RP-LC retention time is 818 s. With `CN(CC(=O)O)S(=O)(=O)c1ccc(Cl)c(-c2nnc(-c3ccccc3)o2)c1`, the RP-LC retention time was 819 s. For the molecule `Cc1cc(C(=O)Nc2ccc(Cl)cc2)n(CC(=O)Nc2ccc(F)cc2)n1`, the RP-LC retention time came out at 946 s.

Take `COC1C(=O)N(CC2CC2)C12CCN(C(=O)C1CC1)CC2` (configuration not stated): the RP-LC retention time was found to be 639 s. On to `Cc1noc(C)c1CN1CCC(NC(=O)c2ccc(F)cc2F)C1` (configuration not stated), for which the RP-LC retention time came out at 580 s. Consider `COc1ccc(NC(=O)C2CCCN(c3nnc4ccccn34)C2)cc1C(F)(F)F` (configuration not stated), for which the RP-LC retention time worked out at 704 s. The same measure for `COC(=O)Nc1nc(CC(=O)NCc2ccco2)cs1`: 606 s; for `CCCNc1cc(N2CCC(CCC(=O)NC(C)C)CC2)ncn1`: 602 s; for `CCCNC(=O)C1CCN(c2ccc(SCC(=O)NCc3ccc(C)c(C)c3)nn2)CC1`: 663 s. In turn, `CCOc1cc(S(=O)(=O)Nc2ncccc2C)ccc1Br` came in with an RP-LC retention time of 666 s. Turning to `CC(C)c1ccc(NC(=O)C(=O)NC2CC(C)(C)NC(C)(C)C2)cc1`, the RP-LC retention time stood at 712 s. `CCOC(=O)N1CCN(C(=O)C2CC2c2ccc(F)cc2)CC1` (configuration not stated) yielded an RP-LC retention time of 755 s. `N#Cc1cccc(CN2CCCC2c2nc(-c3ccccc3)n[nH]2)c1` (configuration not stated) displayed an RP-LC retention time of 616 s. `Cc1ccc2cc(CCC(=O)NC(C)c3cn(C)nc3C)c(=O)[nH]c2c1` (configuration not stated): the RP-LC retention time was 618 s. Take `CN1CCN(c2ncc3c(n2)CC(c2cc(F)cc(F)c2)CC3=O)CC1` (configuration not stated): the RP-LC retention time amounted to 660 s. `CCOc1cccc(C2c3[nH]c4ccccc4c3CCN2C(=O)c2cccs2)c1` (configuration not stated): the RP-LC retention time worked out at 1110 s.

In turn, `COc1cccc(CNC(=O)Cn2c(=O)c3c(C(=O)N4CCCCC4)cc(C)nc3n(C)c2=O)c1` came in with an RP-LC retention time of 778 s. `CN(C)C[C@@H]1CN(c2ccncn2)C[C@H]1NC(=O)c1nccc2ccccc12` came in with an RP-LC retention time of 557 s. The same measure for `O=C1CN(S(=O)(=O)c2ccc(F)c(Cl)c2)CC2(CCOCC2)N1CC1CC1`: 881 s; for `Cc1cc(C)n(-c2ccc(C(=O)NC3CCCC3)cn2)n1`: 885 s. In turn, `CCN1CCn2cc(S(=O)(=O)Nc3ccccc3F)cc2C1=O` displayed an RP-LC retention time of 1070 s. Regarding `CCOc1ccccc1CNC(=O)C1CCCN(c2ccc(=O)n(-c3ccc(CC)cc3)n2)C1` (configuration not stated), the RP-LC retention time came to 978 s.

Molecule `COCCNC(=O)C1CCN(c2ncnc3c2oc2ccccc23)CC1` yielded an RP-LC retention time of 617 s.

Molecule `COC(=O)c1cc(C2CC2)nc2c1c(=O)n(Cc1ccc(Cl)cc1)c(=O)n2C` had an RP-LC retention time of 1180 s. `O=C(Cn1c(Cc2ccc(Cl)cc2)nc2ccccc21)N1CCCCCC1` registered an RP-LC retention time of 739 s. Take `Cc1noc(-c2cc(=O)n(CC(=O)Nc3ccc(N(C)C)cc3)c3ccccc23)n1`: the RP-LC retention time amounted to 650 s.

In turn, `CC1(C)CC(NC(=O)COc2ccc(Cl)cc2Br)CC(C)(C)N1` yielded an RP-LC retention time of 661 s. For `Cc1ccc(NC(=O)N2CCCC2c2c(C)noc2C)cc1F` (configuration not stated), the RP-LC retention time came out at 809 s. The result for `COc1ccc(NC(=O)C2CCc3nc(N4CCOCC4)ncc3C2)c(C)c1` (configuration not stated) reads 702 s; that for `CC1(C)CC(=O)c2cn(-c3ccc(F)cc3)c(=O)c(C(=O)NC3CC3)c2C1`, 814 s; that for `COc1ccc(S(=O)(=O)N2CCN(c3cc(C)nc(NC4CCCCC4)n3)CC2)cc1Cl`, 851 s.

For the molecule `CCSc1nnc(-c2nn(C)c3c2CN(C(=O)c2ccc(C)cc2)CC3)n1C`, the RP-LC retention time amounted to 770 s. With `Cc1cc(NC(=O)C2CCN(C(=O)c3snnc3C)CC2)no1`, the RP-LC retention time is 618 s.

As for `Cn1nnc2ccc(-c3noc(-c4ccc(F)cc4)n3)cc21`, the RP-LC retention time was 981 s. In turn, `Cc1ccc2oc(-c3noc(C(=O)NCCC4=CCCCC4)n3)c(C)c2c1` returned an RP-LC retention time of 1400 s. `CCOCCCNC(=O)C1CCCN(c2ncc(-c3ccc(F)cc3)cn2)C1` (configuration not stated) yielded an RP-LC retention time of 886 s. `Cc1cccc(N2CCN(C(=O)CN3CCN(Cc4ccc(F)cc4Cl)C3=O)CC2)c1`: the RP-LC retention time turned out to be 957 s. The same measure for `Cc1cccc(-c2nc(NCCCN3CCOCC3)c3ccccc3n2)c1`: 819 s; for `CCc1cc(-c2csc(S(=O)(=O)Nc3ccc(C(C)C)cc3)c2)on1`: 1100 s. As to `Cc1cc(C(=O)Nc2nc(-c3nc4ccccc4s3)cs2)c(C)o1`, the RP-LC retention time was 1040 s. For `Cc1nc(C)c(C(=O)N2CCC(C3CCN(S(C)(=O)=O)CC3)C2)s1` (configuration not stated), the RP-LC retention time amounted to 656 s. In turn, `CC1(C)NC(=O)N(CCCCCCN2C(=O)NC(C)(C)C2=O)C1=O` gave an RP-LC retention time of 623 s. On to `Cc1ccc(NC(=O)Cc2ccc(S(C)(=O)=O)cc2)c(C(=O)c2ccccc2)c1`, for which the RP-LC retention time came to 814 s. In turn, `Cc1cc(C(=O)N2CC3CN(S(=O)(=O)c4cccc(F)c4)CC(C2)O3)c(C)o1` showed an RP-LC retention time of 828 s. On to `CCOC(=O)c1c(C)c(C(=O)OCC)n(C)c1C`, for which the RP-LC retention time came out at 1080 s. `CCn1ccc(C(=O)N2CCCC2c2cccc(C)c2)n1` (configuration not stated): the RP-LC retention time worked out at 890 s. `CN1C(=O)[C@H]2CN(Cc3cccc(C#N)c3)C[C@H]2C1=O`: the RP-LC retention time worked out at 531 s. Regarding `CCN1C(=O)COc2ccc(-c3noc(C4CC(=O)N(c5ccc(OC)cc5)C4)n3)cc21` (configuration not stated), the RP-LC retention time was 842 s.
